What all share (assay): G' assay (10 uM PL peptide), results of TABLE 7 and TABLE 12
Common to all, as to assay type: binding

For test [1], the target named is T1, PDZ protein (GST-PDZ fusion) (Homo sapiens, UniProt Q14160).
T1 construct: made in house; host or cells: E. coli (DH5alpha, BL21 or JM109)
An outline of the steps: (§1)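 Same steps as the G-zero format, apart from a peptide concentration of 10 uM in place of 20 uM in step 2. Amino-terminally biotinylated PL peptides bind GST-PDZ fusions, and retained peptide is quantified by 450 nm absorbance.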

The target of test [2] is T2, PDZ protein (GST-PDZ fusion) (Homo sapiens, UniProt Q12959).
T2 construct: made in house; host or cells: E. coli (DH5alpha, BL21 or JM109)
An outline of the steps: as §1

The target in test [3] is T3, PDZ protein (GST-PDZ fusion) (Homo sapiens, UniProt Q8NI35).
T3 construct: made in house; host or cells: E. coli (DH5alpha, BL21 or JM109)
As to conditions: PDZ INADL. An outline of the steps: as §1

Test [4] has as its target T4, PDZ protein (GST-PDZ fusion) (Homo sapiens, UniProt Q86UL8).
T4 construct: made in house; host or cells: E. coli (DH5alpha, BL21 or JM109)
An outline of the steps:
as §1

For test [5], the target named is T5, PDZ protein (GST-PDZ fusion) (Homo sapiens, UniProt Q13796).
T5 construct: made in house; host or cells: E. coli (DH5alpha, BL21 or JM109)
As to conditions: PDZ hAPXL, PDZ Domain 1. An outline of the steps:
as §1

In test [6] the target is T6, PDZ protein (GST-PDZ fusion) (Homo sapiens, UniProt O15018).
T6 construct: made in house; host or cells: E. coli (DH5alpha, BL21 or JM109)
An outline of the steps:
as §1

Test [7] concerns the target T7, PDZ protein (GST-PDZ fusion) (Homo sapiens, UniProt Q15700).
T7 construct: made in house; host or cells: E. coli (DH5alpha, BL21 or JM109)
The note with it: PDZ DLG2, PDZ Domain 2. An outline of the steps: as §1

Test [8] concerns the target T8, PDZ protein (GST-PDZ fusion) (Homo sapiens, UniProt Q92796).
T8 construct: made in house; host or cells: E. coli (DH5alpha, BL21 or JM109)
T8 sequence (Q92796 1-817): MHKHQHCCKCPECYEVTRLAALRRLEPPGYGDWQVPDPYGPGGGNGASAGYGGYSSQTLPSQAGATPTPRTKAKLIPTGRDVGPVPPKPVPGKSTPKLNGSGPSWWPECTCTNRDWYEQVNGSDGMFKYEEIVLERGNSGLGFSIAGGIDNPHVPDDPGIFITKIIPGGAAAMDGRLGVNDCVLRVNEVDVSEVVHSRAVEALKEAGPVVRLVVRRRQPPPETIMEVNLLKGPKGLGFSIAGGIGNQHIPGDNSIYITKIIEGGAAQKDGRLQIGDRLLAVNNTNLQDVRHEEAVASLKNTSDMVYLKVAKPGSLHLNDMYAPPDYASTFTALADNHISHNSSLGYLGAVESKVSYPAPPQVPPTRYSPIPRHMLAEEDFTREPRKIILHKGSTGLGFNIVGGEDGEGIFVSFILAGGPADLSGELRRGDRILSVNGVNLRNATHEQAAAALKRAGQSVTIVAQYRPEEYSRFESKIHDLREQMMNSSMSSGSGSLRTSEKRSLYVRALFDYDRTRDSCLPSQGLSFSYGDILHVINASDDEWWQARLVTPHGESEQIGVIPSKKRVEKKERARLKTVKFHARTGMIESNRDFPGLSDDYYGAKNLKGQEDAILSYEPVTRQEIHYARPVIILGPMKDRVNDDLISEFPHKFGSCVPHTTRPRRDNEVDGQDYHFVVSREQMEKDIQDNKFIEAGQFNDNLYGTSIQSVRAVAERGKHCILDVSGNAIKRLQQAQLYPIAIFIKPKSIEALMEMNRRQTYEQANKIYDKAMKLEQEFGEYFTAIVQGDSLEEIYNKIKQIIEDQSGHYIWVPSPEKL
As to conditions: PDZ NeDLG. An outline of the steps:
as §1

Test [9] concerns the target T9, PDZ protein (GST-PDZ fusion) (Homo sapiens, UniProt P78352).
T9 construct: made in house; host or cells: E. coli (DH5alpha, BL21 or JM109)
An outline of the steps:
as §1

[10] abbreviates: PDZ Atrophin-1 Inter. Prot., PDZ Domain 5.

Ends that are not written are not given here. Peptide text beside a SMILES is read from it. * marks the point of attachment. Biotin = O=C1N[C@H]2[C@H](CS[C@H]2CCCCC(=O)*)N1

T9 sequence (P78352 whole entry, the tested form may be a part): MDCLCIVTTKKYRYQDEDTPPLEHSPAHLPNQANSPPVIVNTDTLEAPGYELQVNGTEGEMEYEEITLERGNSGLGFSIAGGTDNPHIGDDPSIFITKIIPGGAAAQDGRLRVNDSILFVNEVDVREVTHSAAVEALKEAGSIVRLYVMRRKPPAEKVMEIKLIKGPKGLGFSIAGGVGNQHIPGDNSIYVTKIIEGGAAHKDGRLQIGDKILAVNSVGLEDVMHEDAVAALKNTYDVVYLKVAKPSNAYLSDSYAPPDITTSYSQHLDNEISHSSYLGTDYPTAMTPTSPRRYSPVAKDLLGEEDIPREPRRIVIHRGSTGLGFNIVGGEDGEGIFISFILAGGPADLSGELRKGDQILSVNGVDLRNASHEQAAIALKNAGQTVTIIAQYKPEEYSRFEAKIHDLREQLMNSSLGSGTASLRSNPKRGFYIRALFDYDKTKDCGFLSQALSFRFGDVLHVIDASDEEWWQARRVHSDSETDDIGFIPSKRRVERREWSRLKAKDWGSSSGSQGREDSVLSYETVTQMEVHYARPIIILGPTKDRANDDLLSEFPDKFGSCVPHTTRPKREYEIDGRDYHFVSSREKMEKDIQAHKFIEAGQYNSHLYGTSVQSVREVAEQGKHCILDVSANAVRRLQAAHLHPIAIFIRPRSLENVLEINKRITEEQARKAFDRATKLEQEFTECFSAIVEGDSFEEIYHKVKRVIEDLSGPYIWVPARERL
T6 sequence (O15018 whole entry, the tested form may be a part): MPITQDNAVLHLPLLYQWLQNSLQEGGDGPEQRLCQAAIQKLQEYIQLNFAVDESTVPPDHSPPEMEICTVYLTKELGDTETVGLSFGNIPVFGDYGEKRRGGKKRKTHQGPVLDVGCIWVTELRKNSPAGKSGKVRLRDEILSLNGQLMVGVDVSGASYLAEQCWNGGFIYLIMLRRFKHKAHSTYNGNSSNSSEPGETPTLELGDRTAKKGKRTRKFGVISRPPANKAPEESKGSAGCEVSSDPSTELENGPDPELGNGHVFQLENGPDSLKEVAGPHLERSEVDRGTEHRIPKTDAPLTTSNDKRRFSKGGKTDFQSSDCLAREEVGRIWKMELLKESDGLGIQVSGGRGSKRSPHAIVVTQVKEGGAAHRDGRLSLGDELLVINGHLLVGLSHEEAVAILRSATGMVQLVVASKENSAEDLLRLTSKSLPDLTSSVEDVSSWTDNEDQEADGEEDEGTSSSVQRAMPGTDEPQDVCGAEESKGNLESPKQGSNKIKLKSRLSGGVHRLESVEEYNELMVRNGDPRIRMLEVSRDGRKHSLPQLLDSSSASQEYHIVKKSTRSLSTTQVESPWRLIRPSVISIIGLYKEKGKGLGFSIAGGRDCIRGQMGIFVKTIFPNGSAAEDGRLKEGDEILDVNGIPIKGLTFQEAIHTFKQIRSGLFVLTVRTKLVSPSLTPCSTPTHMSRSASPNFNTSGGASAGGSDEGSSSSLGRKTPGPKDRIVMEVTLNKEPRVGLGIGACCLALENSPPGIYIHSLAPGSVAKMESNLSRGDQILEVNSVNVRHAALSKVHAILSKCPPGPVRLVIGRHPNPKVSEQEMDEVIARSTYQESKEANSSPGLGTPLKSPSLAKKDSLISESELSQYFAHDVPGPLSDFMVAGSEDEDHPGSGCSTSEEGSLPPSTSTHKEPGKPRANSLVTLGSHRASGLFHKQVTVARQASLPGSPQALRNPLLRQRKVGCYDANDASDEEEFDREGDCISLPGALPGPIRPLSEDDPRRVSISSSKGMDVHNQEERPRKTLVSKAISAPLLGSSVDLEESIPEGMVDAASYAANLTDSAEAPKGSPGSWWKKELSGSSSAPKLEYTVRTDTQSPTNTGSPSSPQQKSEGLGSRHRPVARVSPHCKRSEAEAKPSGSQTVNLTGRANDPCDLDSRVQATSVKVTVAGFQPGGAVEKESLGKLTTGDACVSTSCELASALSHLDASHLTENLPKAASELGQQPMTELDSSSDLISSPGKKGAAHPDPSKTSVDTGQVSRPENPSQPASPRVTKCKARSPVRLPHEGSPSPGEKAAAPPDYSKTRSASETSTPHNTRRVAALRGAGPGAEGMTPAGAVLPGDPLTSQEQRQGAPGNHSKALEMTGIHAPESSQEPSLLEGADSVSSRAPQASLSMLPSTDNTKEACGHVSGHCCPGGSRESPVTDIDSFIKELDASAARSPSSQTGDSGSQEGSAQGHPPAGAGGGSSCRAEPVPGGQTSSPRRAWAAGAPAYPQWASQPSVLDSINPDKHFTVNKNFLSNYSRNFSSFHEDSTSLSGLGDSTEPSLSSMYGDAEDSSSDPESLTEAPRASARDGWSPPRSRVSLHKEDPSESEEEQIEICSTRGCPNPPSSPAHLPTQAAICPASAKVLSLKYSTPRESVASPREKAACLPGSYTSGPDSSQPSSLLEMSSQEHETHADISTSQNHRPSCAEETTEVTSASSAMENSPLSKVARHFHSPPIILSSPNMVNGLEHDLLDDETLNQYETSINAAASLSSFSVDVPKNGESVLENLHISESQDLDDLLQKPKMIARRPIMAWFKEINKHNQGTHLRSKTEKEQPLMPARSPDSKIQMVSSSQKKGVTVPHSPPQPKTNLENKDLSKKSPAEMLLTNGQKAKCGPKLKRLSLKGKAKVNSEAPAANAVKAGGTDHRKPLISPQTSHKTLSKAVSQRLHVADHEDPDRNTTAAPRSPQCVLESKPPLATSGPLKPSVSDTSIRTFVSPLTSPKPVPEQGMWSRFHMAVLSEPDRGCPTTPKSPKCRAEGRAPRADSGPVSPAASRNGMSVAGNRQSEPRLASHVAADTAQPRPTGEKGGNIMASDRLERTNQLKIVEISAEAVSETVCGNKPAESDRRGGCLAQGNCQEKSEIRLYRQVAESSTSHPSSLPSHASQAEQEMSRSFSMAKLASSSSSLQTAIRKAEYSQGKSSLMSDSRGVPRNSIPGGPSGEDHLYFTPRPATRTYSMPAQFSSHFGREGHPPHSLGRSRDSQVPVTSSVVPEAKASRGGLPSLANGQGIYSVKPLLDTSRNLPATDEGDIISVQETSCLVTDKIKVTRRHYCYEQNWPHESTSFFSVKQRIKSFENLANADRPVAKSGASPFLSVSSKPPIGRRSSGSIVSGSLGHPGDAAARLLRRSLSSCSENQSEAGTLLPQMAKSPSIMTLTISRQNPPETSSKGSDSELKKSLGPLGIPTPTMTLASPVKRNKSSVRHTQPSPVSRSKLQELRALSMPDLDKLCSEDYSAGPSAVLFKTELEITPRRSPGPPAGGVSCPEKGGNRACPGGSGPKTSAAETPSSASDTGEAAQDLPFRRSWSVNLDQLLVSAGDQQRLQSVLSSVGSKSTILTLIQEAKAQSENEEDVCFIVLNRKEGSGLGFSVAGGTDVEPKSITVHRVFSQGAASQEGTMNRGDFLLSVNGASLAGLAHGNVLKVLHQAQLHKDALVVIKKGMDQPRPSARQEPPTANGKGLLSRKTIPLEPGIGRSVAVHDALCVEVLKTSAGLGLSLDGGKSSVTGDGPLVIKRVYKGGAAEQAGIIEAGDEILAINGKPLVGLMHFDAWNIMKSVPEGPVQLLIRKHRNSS
T2 sequence (Q12959 whole entry, the tested form may be a part): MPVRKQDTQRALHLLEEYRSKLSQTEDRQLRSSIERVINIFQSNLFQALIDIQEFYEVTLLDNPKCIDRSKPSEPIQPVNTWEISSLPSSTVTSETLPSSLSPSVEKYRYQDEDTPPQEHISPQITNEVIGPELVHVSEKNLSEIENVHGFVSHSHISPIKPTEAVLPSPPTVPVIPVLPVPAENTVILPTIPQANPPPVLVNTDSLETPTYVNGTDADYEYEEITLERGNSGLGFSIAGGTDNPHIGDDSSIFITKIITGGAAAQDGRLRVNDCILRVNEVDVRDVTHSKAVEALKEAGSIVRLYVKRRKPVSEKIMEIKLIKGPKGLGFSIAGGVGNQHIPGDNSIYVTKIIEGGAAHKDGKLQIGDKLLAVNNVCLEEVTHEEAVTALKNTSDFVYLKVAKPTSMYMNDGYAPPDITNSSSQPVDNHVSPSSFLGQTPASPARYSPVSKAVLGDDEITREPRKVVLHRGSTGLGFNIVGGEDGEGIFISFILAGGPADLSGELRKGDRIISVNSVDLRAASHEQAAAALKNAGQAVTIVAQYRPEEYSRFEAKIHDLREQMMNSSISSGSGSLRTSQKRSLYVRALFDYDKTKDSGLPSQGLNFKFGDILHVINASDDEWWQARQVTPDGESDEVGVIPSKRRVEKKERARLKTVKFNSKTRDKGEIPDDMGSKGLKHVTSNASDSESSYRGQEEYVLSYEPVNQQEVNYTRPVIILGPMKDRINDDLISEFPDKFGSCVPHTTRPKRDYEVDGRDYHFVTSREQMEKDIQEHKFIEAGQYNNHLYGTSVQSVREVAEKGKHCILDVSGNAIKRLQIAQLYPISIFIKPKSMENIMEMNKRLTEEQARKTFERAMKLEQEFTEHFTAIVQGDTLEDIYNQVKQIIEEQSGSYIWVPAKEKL

`CC(C)C[C@H](NC(=O)[C@H](CC(=O)O)NC(=O)[C@H](CO)NC(=O)[C@H](CCC(=O)O)NC(=O)CNC(=O)[C@H](Cc1ccc(O)cc1)NC(=O)[C@H](CC(C)C)NC(=O)[C@H](C)NC(=O)[C@H](CO)NC(=O)[C@H](CO)NC(=O)[C@H](Cc1ccccc1)NC(=O)[C@H](C)NC(=O)[C@H](C)NC(=O)[C@H](Cc1ccc(O)cc1)NC(=O)[C@H](CC(=O)O)NC(=O)[C@H](CC(C)C)NC(=O)[C@H](C)NC(=O)CNC(=O)[C@@H]1CCCN1C(=O)[C@@H](NC(=O)CCCC[C@@H]1SC[C@@H]2NC(=O)N[C@@H]21)C(C)C)C(=O)O` [a-actinin 2] (Biotin-VPGALDYAAFSSALYGESDL-OH; C-terminus assumed): the Classification in test [1] (PDZ KIAA0147, PDZ Domain 1) is on record as 2 (A450 nm 1-2); in test [1] (PDZ KIAA0147, PDZ Domain 3), 3 (A450 nm 2-3); in test [2] (PDZ DLG1, PDZ Domain 1, 2), 1 (A450 nm 0-1); in test [2] (PDZ DLG1, PDZ Domain 2), 1 (A450 nm 0-1); in [3] (PDZ Domain 3), 1 (A450 nm 0-1); in [4] (setting [10]), 5 (A450 nm of 4 more than 2× repeated). Also, the Classification is recorded as 5 (A450 nm of 4 more than 2× repeated) in test [5] and 2 (A450 nm 1-2) in test [6] (PDZ AIPC, PDZ Domain 1).

For `CC[C@H](C)[C@H](NC(=O)CNC(=O)[C@H](CO)NC(=O)[C@H](Cc1ccccc1)NC(=O)[C@@H](NC(=O)[C@H](CS)NC(=O)CNC(=O)CNC(=O)[C@H](C)NC(=O)[C@@H]1CCCN1C(=O)[C@@H](NC(=O)[C@@H]1CCCN1C(=O)CCCC[C@@H]1SC[C@@H]2NC(=O)N[C@@H]21)[C@@H](C)CC)[C@@H](C)O)C(=O)N[C@@H](Cc1ccccc1)C(=O)N1CCC[C@H]1C(=O)N[C@H](C(=O)N[C@@H](CC(C)C)C(=O)N[C@H](C(=O)N[C@@H](CO)C(=O)N1CCC[C@H]1C(=O)N[C@@H](CC(C)C)C(=O)O)[C@@H](C)O)[C@@H](C)O` [KIA 1481] (Biotin-PIPAGGCTFSGIFPTLTSPL-OH; C-terminus assumed), the Classification was 2 (A450 nm 1-2) in test [1] (PDZ KIAA0147, PDZ Domain 1); 1 (A450 nm 0-1) in test [3] (PDZ Domain 5); 5 (A450 nm of 4 more than 2× repeated) in [5].

On to `CC[C@H](C)[C@H](NC(=O)[C@H](CCC(=O)O)NC(=O)[C@H](CC(N)=O)NC(=O)[C@H](CCCNC(=N)N)NC(=O)[C@H](Cc1ccccc1)NC(=O)[C@H](CC(N)=O)NC(=O)[C@H](CO)NC(=O)[C@H](CC(N)=O)NC(=O)[C@H](CCC(=O)O)NC(=O)[C@H](CO)NC(=O)[C@H](CC(=O)O)NC(=O)[C@H](CO)NC(=O)[C@@H](NC(=O)[C@@H](NC(=O)[C@H](CC(=O)O)NC(=O)[C@H](CCCCN)NC(=O)CCCC[C@@H]1SC[C@@H]2NC(=O)N[C@@H]21)[C@@H](C)CC)[C@@H](C)O)C(=O)N[C@@H](CCC(N)=O)C(=O)N[C@@H](CO)C(=O)N[C@@H](CC(C)C)C(=O)N[C@H](C(=O)O)C(C)C` [CD95] (Biotin-KDITSDSENSNFRNEIQSLV-OH; C-terminus assumed), for which the Classification is on record as 1 (A450 nm 0-1) in test [7]; 1 (A450 nm 0-1) in test [2] (PDZ DLG1, PDZ Domain 2); 1 (A450 nm 0-1) in [6] (PDZ AIPC, PDZ Domain 1).

On to `CC(C)C[C@H](NC(=O)[C@H](C)NC(=O)[C@@H](NC(=O)[C@@H](NC(=O)[C@H](Cc1c[nH]cn1)NC(=O)[C@H](CC(C)C)NC(=O)CNC(=O)[C@H](CCC(N)=O)NC(=O)CNC(=O)CNC(=O)[C@H](C)NC(=O)[C@H](C)NC(=O)[C@H](CCCNC(=N)N)NC(=O)[C@H](C)NC(=O)[C@H](CO)NC(=O)[C@H](CC(=O)O)NC(=O)[C@H](CC(=O)O)NC(=O)[C@H](Cc1c[nH]c2ccccc12)NC(=O)[C@H](C)NC(=O)CCCC[C@@H]1SC[C@@H]2NC(=O)N[C@@H]21)C(C)C)[C@@H](C)O)C(=O)O` [LPAP] (Biotin-AWDDSARAAGGQGLHVTAL-OH; C-terminus assumed), for which the Classification in test [1] (PDZ KIAA0147, PDZ Domain 1) is on record as 3 (A450 nm 2-3); in [4] (setting [10]), 2 (A450 nm 1-2); in [5], 1 (A450 nm 0-1).

“LASKSAEEGKQIPDSLSTDL (Biotin-LASKSAEEGKQIPDSLSTDL) [Dock2]”: the Classification is 1 (A450 nm 0-1) in [1] (PDZ KIAA0147, PDZ Domain 1); 1 (A450 nm 0-1) in [3] (PDZ Domain 3); 1 (A450 nm 0-1) in [4] (setting [10]); 2 (A450 nm 1-2) in test [5].

For `CC[C@H](C)[C@H](NC(=O)[C@H](CCC(=O)O)NC(=O)[C@H](CO)NC(=O)[C@H](CCC(=O)O)NC(=O)[C@H](CCCNC(=N)N)NC(=O)[C@H](CCCNC(=N)N)NC(=O)[C@H](CC(C)C)NC(=O)[C@@H]1CCCN1C(=O)[C@H](CCCNC(=N)N)NC(=O)[C@@H]1CCCN1C(=O)[C@H](CCC(=O)O)NC(=O)[C@H](CC(C)C)NC(=O)[C@@H]1CCCN1C(=O)[C@@H](NC(=O)[C@H](CO)NC(=O)[C@H](C)NC(=O)[C@H](CCC(N)=O)NC(=O)[C@H](CC(N)=O)NC(=O)[C@H](Cc1c[nH]cn1)NC(=O)[C@H](CC(C)C)NC(=O)CCCC[C@@H]1SC[C@@H]2NC(=O)N[C@@H]21)C(C)C)C(=O)O` [Kir2.1 (inwardly rect. K+ channel)] (Biotin-LHNQASVPLEPRPLRRESEI-OH; C-terminus assumed), the Classification in test [7] is recorded as 1 (A450 nm 0-1); in test [8] (PDZ Domain 1, 2), 1 (A450 nm 0-1); in [2] (PDZ DLG1, PDZ Domain 1, 2), 2 (A450 nm 1-2); in [2] (PDZ DLG1, PDZ Domain 2), 1 (A450 nm 0-1); in test [4] (PDZ atrophin-1 interacting Protein, PDZ Domain 1), 1 (A450 nm 0-1); in test [9] (PDZ PSD95, PDZ Domain 1, 2, 3) it was 2 (A450 nm 1-2).

`CC[C@H](C)[C@H](NC(=O)[C@H](CCCCN)NC(=O)[C@@H](NC(=O)[C@H](CO)NC(=O)[C@@H]1CCCN1C(=O)[C@H](Cc1ccccc1)NC(=O)[C@@H](NC(=O)[C@@H](NC(=O)[C@H](CCCNC(=N)N)NC(=O)[C@H](CCC(=O)O)NC(=O)[C@H](CC(C)C)NC(=O)[C@H](CC(C)C)NC(=O)[C@H](CC(C)C)NC(=O)[C@@H](NC(=O)CNC(=O)[C@@H](NC(=O)CCCC[C@@H]1SC[C@@H]2NC(=O)N[C@@H]21)C(C)C)[C@@H](C)O)C(C)C)[C@@H](C)CC)C(C)C)C(=O)N[C@@H](C)C(=O)N[C@H](C(=O)N[C@@H](CC(C)C)C(=O)N[C@H](C(=O)O)C(C)C)[C@@H](C)O` [Adenovirus E4 Type9]: the Classification was 5 (A450 nm of 4 more than 2× repeated) in [7] (Protein Optimal Conc 0.5); 5 (A450 nm of 4 more than 2× repeated) in test [8] (PDZ Domain 1, 2, PL peptide 10 uM); 1 (A450 nm 0-1) in test [8] (PDZ Domain 1, PL peptide 10 uM); 5 (A450 nm of 4 more than 2× repeated) in [8] (PDZ Domain 2, Protein Optimal Conc 5); 5 (A450 nm of 4 more than 2× repeated) in test [2] (PDZ DLG1, PDZ Domain 1, 2, PL peptide 10 uM); 4 (A450 nm 3-4) in test [2] (PDZ DLG1, PDZ Domain 1, Protein Optimal Conc 0.5). Also, the Classification is reported as 5 (A450 nm of 4 more than 2× repeated) in [2] (PDZ DLG1, PDZ Domain 2, Protein Optimal Conc 0.3); 2 (A450 nm 1-2) in test [3] (PDZ Domain 8, PL peptide 10 uM); 5 (A450 nm of 4 more than 2× repeated) in test [4] (PDZ atrophin-1 interacting Protein, PDZ Domain 1, Protein Optimal Conc 0.5); 4 (A450 nm 3-4) in test [4] (PDZ atrophin-1 interacting Protein, PDZ Domain 3, Protein Optimal Conc 5); 1 (A450 nm 0-1) in test [6] (PDZ KIAA0300, PDZ Domain 1, PL peptide 10 uM); 5 (A450 nm of 4 more than 2× repeated) in test [9] (PDZ PSD95, PDZ Domain 1, 2, 3, PL peptide 10 uM). Further, in test [9] (PDZ PSD95, PDZ Domain 1, Protein Optimal Conc 5), the Classification was 4 (A450 nm 3-4).
